Legend:
Type in all cases: binding
[1] = test system: human monoclonal antibody CRJA
[2] = test system: human monoclonal antibody CR57
[3] = test system: human monoclonal antibody CRJB
[4] = test system: human monoclonal antibody CR57; remark: listed apart in the source
[5] = test system: human monoclonal antibody CRJA; remark: listed apart in the source
[6] = test system: human monoclonal antibody CRJB; remark: listed apart in the source

| Sequence | Binding of CRJA to linear peptide (PEPSCAN-ELISA signal) [1] | Binding of CR57 (10 μg/ml) to looped/cyclic peptide (PEPSCAN-ELISA) [2] | Binding of CRJB (10 μg/ml) to looped/cyclic peptide (PEPSCAN-ELISA) [3] | Binding of CR57 to linear peptide (PEPSCAN-ELISA signal) [4] | Binding of CRJA (10 μg/ml) to looped/cyclic peptide (PEPSCAN-ELISA) [5] | Binding of CRJB to linear peptide (PEPSCAN-ELISA signal) [6] | Binding of CR57 (10 μg/ml) to looped/cyclic peptide (PEPSCAN-ELISA signal) [2] | Binding of CRJB (10 μg/ml) to looped/cyclic peptide (PEPSCAN-ELISA signal) [3] | Binding of CRJA (10 μg/ml) to looped/cyclic peptide (PEPSCAN-ELISA signal) [5] | binding of antibody CRJA to looped/cyclic peptide (PEPSCAN OD) [5] | binding of antibody CR57 to linear peptide (PEPSCAN OD) [4] |
| --- | --- | --- | --- | --- | --- | --- | --- | --- | --- | --- | --- |
| RSDEIEHLVVEELVR | 93 | 136 | 93 | 100 | 107 | 138 |  |  |  |  |  |
| RSLHSRVFPSGKCSG | 125 |  |  | 87 |  | 141 | 102 | 93 | 123 |  |  |
| RTVKTTKESLVIISP | 103 |  |  | 82 |  | 120 | 88 | 69 | 88 |  |  |
| RTWNEILPSKGCLRV | 97 | 107 | 93 | 120 | 102 | 127 |  |  |  |  |  |
| RVFPSGKCSGVAVSS | 58 |  |  | 69 |  | 110 | 75 | 89 | 43 |  |  |
| RVGGRCHPHVNGVFF | 93 | 107 | 104 | 86 | 117 | 143 |  |  |  |  |  |
| RWLRTVKTTKESLVI | 72 |  |  | 40 |  | 110 | 77 | 75 | 71 |  |  |
| RYEESLHNPYPDYRW | 96 |  |  | 69 |  | 112 | 98 | 71 | 91 |  |  |
| SCDIFTNSRGKRASK | 89 |  |  | 44 |  | 111 | 1 | 79 | 57 |  |  |
| SCPNNLVVEDEGCTN | 88 |  |  | 83 |  | 114 | 82 | 69 | 85 |  |  |
| SDEIEHLVVEELVRK | 97 | 96 | 85 | 101 | 99 | 117 |  |  |  |  |  |
| SETCGFVDERGLYKS | 71 | 58 | 78 | 33 | 56 | 116 |  |  |  |  |  |
| SFRRLSHLRKLVPGF | 75 | 143 | 87 | 92 | 320 | 110 |  |  |  | clearly bound |  |
| SGFSYMELKVGYILA | 105 |  |  | 79 |  | 132 | 74 | 83 | 69 |  |  |
| SGKCSGVAVSSTYCS | 65 |  |  | 64 |  | 121 | 77 | 57 | 85 |  |  |
| SGVAVSSTYCSTNHD | 84 |  |  | 79 |  | 110 | 79 | 55 | 90 |  |  |
| SHLRKLVPGFGKAYT | 118 | 143 | 103 | 113 | 160 | 132 |  |  |  |  |  |
| SIMTTKSVSFRRLSH | 92 | 69 | 25 | 54 | 72 | 130 |  |  |  |  |  |
| SKGCLRVGGRCHPHV | 87 | 79 | 87 | 72 | 71 | 121 |  |  |  |  |  |
| SKGSETCGFVDERGL | 104 | 104 | 77 | 92 | 99 | 102 |  |  |  |  |  |
| SLHNPYPDYRWLRTV | 87 |  |  | 78 |  | 111 | 104 | 90 | 99 |  |  |
| SLHSRVFPSGKCSGV | 96 |  |  | 69 |  | 111 | 115 | 86 | 97 |  |  |
| SLKGACKLKLCGVLG | 99 | 129 | 79 | 200 | 106 | 111 |  |  |  |  | bound |
| SLLQQHMELLESSVI | 108 | 113 | 85 | 124 | 101 | 163 |  |  |  |  |  |
| SLVIISPSVADLDPY | 88 |  |  | 68 |  | 105 | 98 | 85 | 87 |  |  |
| SNETKWCPPDQLVNL | 94 | 129 | 93 | 99 | 102 | 129 |  |  |  |  |  |
| SPIDIHHLSCPNNLV | 100 |  |  | 74 |  | 85 | 94 | 72 | 92 |  |  |
| SPSVADLDPYDRSLH | 72 |  |  | 59 |  | 114 | 76 | 63 | 51 |  |  |
| SRGKRASKGSETCGF | 70 |  |  | 64 |  | 93 | 96 | 86 | 82 |  |  |
